In general, IC50 refers to the concentration that inhibits the measured activity by half.

Bounds are passed on as bounds.

One test has as its target T1, human CGT (Homo sapiens, UniProt Q16880).
T1 sequence (Q16880 21-541): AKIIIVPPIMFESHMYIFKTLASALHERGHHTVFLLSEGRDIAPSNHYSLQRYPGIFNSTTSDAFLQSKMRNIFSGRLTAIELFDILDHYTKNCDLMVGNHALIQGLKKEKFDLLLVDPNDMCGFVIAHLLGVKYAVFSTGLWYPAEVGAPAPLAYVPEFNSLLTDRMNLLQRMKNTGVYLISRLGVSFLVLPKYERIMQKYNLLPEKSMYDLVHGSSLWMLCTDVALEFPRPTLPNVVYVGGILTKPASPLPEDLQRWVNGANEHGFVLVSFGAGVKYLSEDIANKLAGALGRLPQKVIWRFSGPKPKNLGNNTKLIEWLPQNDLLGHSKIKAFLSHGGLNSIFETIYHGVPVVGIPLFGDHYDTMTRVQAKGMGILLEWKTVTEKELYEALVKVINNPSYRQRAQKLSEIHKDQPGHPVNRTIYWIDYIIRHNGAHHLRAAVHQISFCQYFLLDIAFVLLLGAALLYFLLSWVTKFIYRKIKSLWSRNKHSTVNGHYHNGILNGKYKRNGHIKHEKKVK
Description: CGT Enzyme Assay (Biological Example 2, RapidFire/MS/MS method with 0.01% Tween 80 added). Type of test: biochemical. The settings on record: enzymatic assay, CHO/CGT lysate. The protocol:
Full-length human CGT cDNA was cloned into the BamH1/Xho1 site of pcDNA3.1 (+) mammalian expression vector (V90-20, Invitrogen, Carlsbad, Calif.) and the plasmid was transfected into Chinese hamster ovary (CHO) cells. Lysate was prepared using M-PER (Mammalian Protein Extraction Reagent, ThermoFisher Scientific, Grand Island, N.Y.) in the presence of a protease inhibitor cocktail (P8340, Sigma, Saint Louis, Mo.). Each 100 mm dish (100% confluent, approximately 1×10^7 cells) was lysed with 250 μL of M-PER containing protease inhibitors. Protein concentration was determined using a Pierce BCA protein assay kit (ThermoFisher Scientific). […] The final concentration of DMSO was 0.5% in both compound-treated and mock-treated samples. Each individual reaction was diluted with 80 μL of methanol:acetronitrile (1:3) containing 5 μM N-docdecanoyl-NBD-galactosylceramide (internal standard) to stop the reaction. 200 μL H2O:acetonitile (1:1) was added to precipitate the protein. After sufficient mixing, the plates were centrifuged at 2469 g for 38 minutes, 200 μl of supernatant was transferred to a LC-MS 96-deep well plate and a second spin was performed at 2469 g for 10 minutes. The final supernatant was injected in triplicate for RapidFire/MS/MS analysis.
The quantitative analysis of C6-NBD-dihydro-ceramide and C6-NBD-dihydro-galactosylceramide was performed on a Rapid Fire 360 high-throughput mass spectrometry system (Agilent Technologies, Palo Alto, Calif.) coupled with a API4000^+ triple quadrupole mass spectrometer (Applied Biosystems, Concord, Ontario, Canada). RapidFire software packages, including RapidFire Control panel, RapidFire UI and RapidFire Integrator (Agilent Technologies), were used to control the RapidFire instrument and to process data. Analyst 1.6.2 software packages (Applied Biosystems) were used to control the MS system and acquire MS data. 10 μL of sample was loaded on a micro-scale C4 solid-phase extraction (SPE) cartridge (Agilent Technologies) and salts were removed using water supplemented with 0.1% formic acid at the flow rate of 1.5 mL/min for 3 sec. C6-NBD-dihydro-ceramide and C6-NBD-dihydro-galactosylceramide were co-eluted into the mass spectrometer using acetonitrile containing 0.1% formic acid at the flow rate of 1.0 mL/min for 3 sec. The total cycle time of one injection was 8 secs. The MS/MS detection was performed in ESI negative mode.
The C6-NBD-dihydro-galactosylceramide reading was normalized first by dividing the peak area of C6-NBD-dihydro-galactosylceramide by the peak area of the internal standard, N-docdecanoyl-NBD-galactosylceramide.
The compound `CC1(C)[C@H](c2cccc(OC(F)(F)F)c2)N(c2ccc(C#N)cc2)C(=O)N1c1ccc(Cl)cc1` [Example 40-2, (S)-4-(3-(4-chlorophenyl)-4,4-dimethyl-2-oxo-5-(3-(trifluoromethoxy)phenyl)imidazolidin-1-yl)benzonitrile] registered an IC50 of less than 1 µM.
For the compound `Cc1ccc(N2C(=O)N(c3ccc(C#N)cc3)C(C)(C)[C@H]2c2cccc(C#N)c2)cc1` [Example 54-1, (R)-3-(1-(4-cyanophenyl)-5,5-dimethyl-2-oxo-3-(p-tolyl)imidazolidin-4-yl)benzonitrile], the IC50 was in the range of 10 to 30 µM.
The compound `Cc1ccc(N2C(=O)N(c3ccc(C#N)cc3)C3(COC3)[C@@H]2c2cccc(OC(F)(F)F)c2)cc1` [Example 43-2, (S)-4-(6-oxo-7-(p-tolyl)-8-(3-(trifluoromethoxy)phenyl)-2-oxa-5,7-diazaspiro[3.4]octan-5-yl)benzonitrile] came in with an IC50 of less than 1 µM.
Still for that read-out and setting: with `CCC[C@]1(C)[C@H](c2cccc(OC(F)(F)F)c2)N(c2ccc(C#N)cc2)C(=O)N1c1ccc(C#N)cc1` [Example 52-2, 4,4′-((4R,5S)-4-methyl-2-oxo-4-propyl-5-(3-(trifluoromethoxy)phenyl)imidazolidine-1,3-diyl)dibenzonitrile] the figure was less than 1 µM; with `O=C1N(c2ccc(Cl)cc2)C2CCOC[C@@]2(c2cccc(OC(F)(F)F)c2)N1c1ccc(Cl)cc1` (stereo partly drawn) [Example 31-2, (3aS)-1,3-bis(4-chlorophenyl)-3a-(3-(trifluoromethoxy)phenyl)hexahydropyrano[3,4-d]imidazol-2(3H)-one], less than 1 µM.
`CC[C@]1(C)[C@@H](c2cccc(OC(F)(F)F)c2)N(c2ccc(Cl)cc2)C(=O)N1c1ccc(Cl)cc1` [Example 19-1, (4R,5R)-1,3-bis(4-chlorophenyl)-4-ethyl-4-methyl-5-(3-(trifluoromethoxy)phenyl)imidazolidin-2-one]: the 50% inhibitory concentration (IC50) was 1 to 10 µM.
On the same count and under the same terms, the same measure for `Cc1ccc(N2C(=O)N(c3ccc(C)cc3)C3(CCCC3)[C@H]2c2cccc(OC(F)(F)F)c2)cc1` [Example 35-1, (R)-1,3-di-p-tolyl-4-(3-(trifluoromethoxy)phenyl)-1,3-diazaspiro[4.4]nonan-2-one]: 1 to 10 µM; for `CC[C@]1(C)[C@H](c2cccc(C#N)c2)N(c2ccc(Cl)cc2)C(=O)N1c1ccc(Cl)cc1` [Example 34-4, 3-((4S,5R)-1,3-bis(4-chlorophenyl)-5-ethyl-5-methyl-2-oxoimidazolidin-4-yl)benzonitrile]: 10 to 30 µM.
For the compound `C[C@@]1(C(F)(F)F)[C@H](c2cccc(C#N)c2)N(c2ccc(Cl)cc2)C(=O)N1c1ccc(Cl)cc1` [Example 27-1, 3-((4S,5S)-1,3-bis(4-chlorophenyl)-5-methyl-2-oxo-5-(trifluoromethyl)imidazolidin-4-yl)benzonitrile], the IC50 lay within 10 to 30 µM.
The same measure, in the same setting: with `CC1(C)[C@H](c2cccc(C#N)c2)N(c2ccc(Cl)cc2)C(=O)N1c1ccc(Cl)cc1` [Example 10-2, (S)-3-(1,3-bis(4-chlorophenyl)-5,5-dimethyl-2-oxoimidazolidin-4-yl)benzonitrile] the figure was less than 1 µM; with `CCC[C@]1(C)[C@@H](c2cccc(OC(F)(F)F)c2)N(c2ccc(C#N)cc2)C(=O)N1c1ccc(C#N)cc1` [Example 52-3, 4,4′-((4R,5R)-4-methyl-2-oxo-4-propyl-5-(3-(trifluoromethoxy)phenyl)imidazolidine-1,3-diyl)dibenzonitrile], 1 to 10 µM.
`C[C@@]1(C(F)(F)F)[C@H](c2cccc(OC(F)(F)F)c2)N(c2ccc(Br)cc2)C(=O)N1c1ccc(C#N)cc1` [Example 44-1, 4-((4S,5S)-3-(4-bromophenyl)-5-methyl-2-oxo-4-(3-(trifluoromethoxy)phenyl)-5-(trifluoromethyl)imidazolidin-1-yl)benzonitrile] gave an IC50 of 1 to 10 µM.
In turn, `C[C@]1(C(F)(F)F)[C@@H](c2cccc(OC(F)(F)F)c2)N(c2ccc(Cl)cc2)C(=O)N1c1ccc(Cl)cc1` [Example 25-2] yielded an IC50 of 1 to 10 µM.
As for `O=C1N(c2ccc(Cl)cc2)[C@H]2CCC[C@@]2(c2cccc(C(F)F)c2)N1c1ccc(Cl)cc1` [Example 16-1, (3aS,6aS)-1,3-bis(4-chlorophenyl)-3a-(3-(difluoromethyl)phenyl)hexahydrocyclopenta[d]imidazol-2(1H)-one], the IC50 lay in the range of 10 to 30 µM.
`C[C@H]1[C@H](c2ccccc2)N(c2ccc(Br)cc2)C(=O)N1c1ccc(Br)cc1` [Example 2-1, (4S,5S)-1,3-bis(4-bromophenyl)-4-methyl-5-phenylimidazolidin-2-one]: the IC50 fell in the range of 30 to 100 µM.
The compound `Cc1cccc(C2C(C)N(c3ccc(Cl)cc3)C(=O)N2c2ccc(Cl)cc2)c1` (stereo not drawn) [Example 3] returned an IC50 of 30 to 100 µM.
Still for that read-out and setting: the same measure for `C[C@]1(C(F)(F)F)[C@@H](c2cccc(OC(F)(F)F)c2)N(c2ccc(C#N)cc2)C(=O)N1c1ccc(C#N)cc1` [Example 39-2, 4,4′-((4R,5R)-4-methyl-2-oxo-5-(3-(trifluoromethoxy)phenyl)-4-(trifluoromethyl)imidazolidine-1,3-diyl)dibenzonitrile]: 10 to 30 µM; for `CC[C@@]1(C)[C@H](c2cccc(OC(F)(F)F)c2)N(c2ccc(C#N)cc2)C(=O)N1c1ccc(C#N)cc1` [Example 51-5, 4,4′-((4S,5S)-4-ethyl-4-methyl-2-oxo-5-(3-(trifluoromethoxy)phenyl)imidazolidine-1,3-diyl)dibenzonitrile]: 1 to 10 µM; for `CC1(C)C(c2cccc(OC(F)(F)F)c2)N(c2ccc(Cl)cc2)C(=O)N1c1ccc(Cl)cc1` (stereo not drawn) [Example 7]: less than 1 µM.
As for `N#Cc1ccc(N2C(=O)N(c3ccc(C#N)cc3)C3(COC3)[C@H]2c2cccc(OC(F)(F)F)c2)cc1` [Example 36-1], the IC50 was 10 to 30 µM.
In turn, `O=C1N(c2ccc(Cl)cc2)C2CCCC2(c2cccc(OC(F)(F)F)c2)N1c1ccc(Cl)cc1` (stereo not drawn) [Example 12] had an IC50 of 1 to 10 µM.
On to `CC1(C)[C@H](c2cccc(OC(F)(F)F)c2)N(c2ccccc2)C(=O)N1c1ccccc1` [Example 26-2, (S)-4,4-dimethyl-1,3-diphenyl-5-(3-(trifluoromethoxy)phenyl)imidazolidin-2-one], for which the IC50 fell in the range of 1 to 10 µM.
Compound `O=C1N(c2ccc(Cl)cc2)[C@@H]2CCC[C@]2(c2cccc(C(F)F)c2)N1c1ccc(Cl)cc1` [Example 16-2, (3aR,6aR)-1,3-bis(4-chlorophenyl)-3a-(3-(difluoromethyl)phenyl)hexahydrocyclopenta[d]imidazol-2(1H)-one] registered an IC50 of 10 to 30 µM.

The target of another test is T1, human CGT. The test can be described thus: Assay 1: CGT Enzymatic Assay (RapidFire/MS/MS, 0.01% Tween 80). Type of test: biochemical. The note with it: Table 1, Compounds of Formula (I) and Formula (II); CGT enzymatic assay, C6-NBD-dihydro-galactosylceramide readout; read-out: IC50.
With `Cc1ccc(N2C(=O)N(c3ccc(Cl)cc3)C3(CCC3)C2(O)c2cccc(OC(F)(F)F)c2)cc1` (stereo not drawn) [Example 333, 5-(4-chlorophenyl)-8-hydroxy-7-(p-tolyl)-8-(3-(trifluoromethoxy)phenyl)-5,7-diazaspiro[3.4]octan-6-one], the IC50 is less than 1 µM.
Consider `Cc1ccc(N2C(=O)N(c3ccc(C#N)cc3)C3(COC3)C2(O)c2cccc(OC(F)(F)F)c2)cc1` (stereo not drawn) [Compound 277, 4-(8-hydroxy-6-oxo-7-(p-tolyl)-8-(3-(trifluoromethoxy)phenyl)-2-oxa-5,7-diazaspiro[3.4]octan-5-yl)benzonitrile], for which the IC50 is less than 1 µM.

Staying with this test, now noted: Table 1, Compounds of Formula (I) and Formula (II); CGT enzymatic assay; read-out: IC50.
With `O=C1N(c2ccc(Br)cc2)[C@@H](c2ccccc2)C(O)(c2ccccc2)N1c1ccc(Br)cc1` (stereo partly drawn) [Compound 86-1, (5S)-1,3-bis(4-bromophenyl)-4-hydroxy-4,5-diphenylimidazolidin-2-one], the IC50 was 10 to 50 µM.
Consider `CCC[C@@H]1N(c2ccc(Cl)cc2)C(=O)N(c2ccc(Cl)cc2)C1(O)c1cccc(Cl)c1` (stereo partly drawn) [Compound 114-1, (5S)-4-(3-chlorophenyl)-1,3-bis(4-chlorophenyl)-4-hydroxy-5-propylimidazolidin-2-one], for which the IC50 is less than 1 µM.

The values above are taken from US20190134005A1 (BioMarin Pharmaceutical Inc., priority 2016, published 2019).
